The NIST ThermoML archive (doi:10.1016/j.jct.2013.02.004)
± gives the expanded uncertainty stated by the source.

Experiment: activity coefficient (dimensionless); of the first substance listed, at infinite dilution; xn = mol fraction of the nth substance listed
Conditions: 101 kPa, Liquid, Chromatography, x1 = 0

Row | SMILES | activity coefficient (328.15 K) | activity coefficient (338.15 K) | activity coefficient (348.15 K) | activity coefficient (358.15 K) | activity coefficient (368.15 K) | activity coefficient (308.15 K) | activity coefficient (318.15 K)
1 | CCc1ccccc1 [ethylbenzene] + CCCCCC[n+]1ccc2ccccc2c1.N#C[S-] | 3.08 ± 0.21 | 3.07 ± 0.21 | 3.07 ± 0.21 | 3.06 ± 0.21 | 3.05 ± 0.21 | – | –
2 | CCCCCCC [heptane] + CCCCCC[n+]1ccc2ccccc2c1.N#C[S-] | 42.5 ± 2.9 | 38 ± 2.6 | 35.2 ± 2.4 | 32 ± 2.2 | 29.1 ± 2 | 53 ± 3.6 | 47 ± 3.2
3 | C=CCCCC [hex-1-ene] + CCCCCC[n+]1ccc2ccccc2c1.N#C[S-] | 16.9 ± 1.2 | 15.4 ± 1.1 | 14.4 ± 1 | 13.3 ± 0.9 | 12.3 ± 0.8 | 20.2 ± 1.4 | 18.2 ± 1.2
4 | CCCCCC [hexane] + CCCCCC[n+]1ccc2ccccc2c1.N#C[S-] | 35.6 ± 2.4 | 31.6 ± 2.2 | 28.3 ± 1.9 | 25.4 ± 1.7 | 23.1 ± 1.6 | 46.6 ± 3.2 | 40.5 ± 2.8
5 | CO [methanol] + CCCCCC[n+]1ccc2ccccc2c1.N#C[S-] | 0.381 ± 0.033 | 0.378 ± 0.033 | 0.375 ± 0.033 | 0.376 ± 0.033 | 0.37 ± 0.033 | – | –
6 | CC1CCCCC1 [methylcyclohexane] + CCCCCC[n+]1ccc2ccccc2c1.N#C[S-] | 19.8 ± 1.4 | 17.7 ± 1.2 | 16.4 ± 1.1 | 15.2 ± 1 | 14 ± 1 | 24.2 ± 1.7 | 21.5 ± 1.5
7 | CCCCCCCCC [nonane] + CCCCCC[n+]1ccc2ccccc2c1.N#C[S-] | 68.2 ± 4.7 | 62.5 ± 4.3 | 59 ± 4 | 54.5 ± 3.7 | 51.3 ± 3.5 | 79.7 ± 5.5 | 73.2 ± 5
8 | c1ccncc1 [pyridine] + CCCCCC[n+]1ccc2ccccc2c1.N#C[S-] | 0.703 ± 0.047 | 0.713 ± 0.048 | 0.722 ± 0.048 | 0.729 ± 0.048 | 0.745 ± 0.049 | – | –
9 | Cc1ccccc1 [toluene] + CCCCCC[n+]1ccc2ccccc2c1.N#C[S-] | 2.05 ± 0.14 | 2.07 ± 0.14 | 2.08 ± 0.14 | 2.1 ± 0.14 | 2.11 ± 0.14 | – | –

More lines, now with the values ahead:

Row | activity coefficient (328.15 K) | activity coefficient (338.15 K) | activity coefficient (348.15 K) | activity coefficient (358.15 K) | activity coefficient (368.15 K) | activity coefficient (308.15 K) | activity coefficient (318.15 K) | SMILES
10 | 27.1 ± 1.9 | 25.6 ± 1.8 | 24.4 ± 1.7 | 23.2 ± 1.6 | 22.2 ± 1.5 | 30.2 ± 2.1 | 28.5 ± 1.9 | C=CCCCCCC [oct-1-ene] + CCCCCC[n+]1ccc2ccccc2c1.N#C[S-]
11 | 53.3 ± 3.7 | 48.3 ± 3.3 | 45.7 ± 3.1 | 42.1 ± 2.9 | 38.6 ± 2.6 | 64.1 ± 4.4 | 58 ± 4 | CCCCCCCC [octane] + CCCCCC[n+]1ccc2ccccc2c1.N#C[S-]
12 | 2.1 ± 0.14 | 2.11 ± 0.14 | 2.12 ± 0.14 | 2.12 ± 0.14 | 2.13 ± 0.14 | – | – | CCCC(C)=O [pentan-2-one] + CCCCCC[n+]1ccc2ccccc2c1.N#C[S-]
13 | 2.1 ± 0.14 | 2.11 ± 0.14 | 2.13 ± 0.14 | 2.15 ± 0.15 | 2.15 ± 0.15 | – | – | CCC(=O)CC [pentan-3-one] + CCCCCC[n+]1ccc2ccccc2c1.N#C[S-]
14 | 0.693 ± 0.047 | 0.681 ± 0.046 | 0.671 ± 0.045 | 0.664 ± 0.045 | 0.653 ± 0.045 | – | – | CCCO [propan-1-ol] + CCCCCC[n+]1ccc2ccccc2c1.N#C[S-]
15 | 1.46 ± 0.1 | 1.47 ± 0.1 | 1.48 ± 0.1 | 1.48 ± 0.1 | 1.5 ± 0.1 | – | – | C1CCOC1 [tetrahydrofuran] + CCCCCC[n+]1ccc2ccccc2c1.N#C[S-]
16 | 0.921 ± 0.058 | 0.943 ± 0.059 | 0.963 ± 0.061 | 0.98 ± 0.06 | 0.998 ± 0.062 | – | – | c1ccsc1 [thiophene] + CCCCCC[n+]1ccc2ccccc2c1.N#C[S-]
17 | 0.401 ± 0.034 | 0.406 ± 0.034 | 0.41 ± 0.03 | 0.399 ± 0.034 | 0.418 ± 0.035 | – | – | O [water] + CCCCCC[n+]1ccc2ccccc2c1.N#C[S-]
